Results on 17 molecules are retold here after PubChem BioAssay AID292 (DTP/NCI, 2004).

Several values for one entry are separate records, joined by “and”; a condition that tells them apart may be missing. Identical values can stand only once. Toxic doses and inconclusive results are not listed.

In the assay the test system is B6C3F1 mice, ip Sarcoma M5076, median survival T/C. The assay is described as follows: NCI In Vivo Anticancer Drug Screen. Data for tumor model Sarcoma M5076 (intraperitoneal) in B6C3F1 mice. The conditions noted are these: endpoint: median survival time, higher = longer survival. An outline of the steps: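 The readout is a ratio of survival in drug-treated animals to survival in animals given vehicle alone, taken in mice bearing a transplanted tumour line.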

The mark [1] stands for this setting: dose: 18.75 mg/kg/injection, schedule: Q04DX004 (ip), vehicle: saline with Tween-80.
Where [2] appears, read: dose: 37.5 mg/kg/injection, schedule: Q04DX004 (ip), vehicle: saline with Tween-80.
Setting [3] is: dose: 75.0 mg/kg/injection, schedule: Q04DX004 (ip), vehicle: saline with Tween-80.
[4] abbreviates: dose: 150.0 mg/kg/injection, schedule: Q04DX004 (ip), vehicle: saline with Tween-80.
The mark [5] stands for this setting: dose: 25.0 mg/kg/injection, schedule: Q04DX004 (ip), vehicle: saline with Tween-80.
Where [6] appears, read: dose: 50.0 mg/kg/injection, schedule: Q04DX004 (ip), vehicle: saline with Tween-80.
[7] abbreviates: dose: 100.0 mg/kg/injection, schedule: Q04DX004 (ip), vehicle: saline with Tween-80.
Setting [8] is: dose: 200.0 mg/kg/injection, schedule: Q04DX004 (ip), vehicle: saline with Tween-80.
[9] abbreviates: dose: 50.0 mg/kg/injection, schedule: Q04DX004 (ip), vehicle: Klucel (hydroxypropylcellulose) (HPC).
Setting [10] is: dose: 100.0 mg/kg/injection, schedule: Q04DX004 (ip), vehicle: Klucel (hydroxypropylcellulose) (HPC).
The mark [11] stands for this setting: dose: 200.0 mg/kg/injection, schedule: Q04DX004 (ip), vehicle: Klucel (hydroxypropylcellulose) (HPC).
Where [12] appears, read: dose: 400.0 mg/kg/injection, schedule: Q04DX004 (ip), vehicle: saline with Tween-80.
[13] abbreviates: dose: 800.0 mg/kg/injection, schedule: Q04DX004 (ip), vehicle: saline with Tween-80.
Where [14] appears, read: dose: 100.0 mg/kg/injection, schedule: Q04DX004 (ip), vehicle: suspension in saline.
The mark [15] stands for this setting: dose: 200.0 mg/kg/injection, schedule: Q04DX004 (ip), vehicle: suspension in saline.
[16] abbreviates: dose: 25.0 mg/kg/injection, schedule: Q04DX004 (ip), vehicle: Klucel (hydroxypropylcellulose) (HPC).

With `C=CC(=O)OCCOCN(COCCOC(=O)C=C)c1nc(N(COCCOC(=O)C=C)COCCOC(=O)C=C)nc(N(COCCOC(=O)C=C)COCCOC(=O)C=C)n1`, the T/C is 103 % of control under setting [1], 100 % of control under setting [2], 110 % of control under setting [3] and 104 % of control under setting [4].

On to `Cc1c(-c2ccc(-c3ccccc3F)cc2)nc2ccc(F)cc2c1C(=O)O`, for which the T/C by setting is: (dose: 6.25 mg/kg/injection, schedule: Q01DX009 (ip), vehicle: water) 124 % of control; (dose: 12.5 mg/kg/injection, schedule: Q01DX009 (ip), vehicle: water) 123 % of control; (dose: 25.0 mg/kg/injection, schedule: Q01DX009 (ip), vehicle: water) 124 % of control.

For `COc1ccc([C@@]23Oc4cc(OC)cc(OC)c4[C@]2(O)[C@H](O)[C@H](C(=O)N(C)C)[C@H]3c2ccccc2)cc1`, the T/C is 97 % of control (dose: 1.0 mg/kg/injection, schedule: Q04DX004 (ip), vehicle: Klucel (hydroxypropylcellulose) (HPC)); 105 % of control (dose: 2.0 mg/kg/injection, schedule: Q04DX004 (ip), vehicle: Klucel (hydroxypropylcellulose) (HPC)); 109 % of control (dose: 4.0 mg/kg/injection, schedule: Q04DX004 (ip), vehicle: Klucel (hydroxypropylcellulose) (HPC)); 123 % of control (dose: 8.0 mg/kg/injection, schedule: Q04DX004 (ip), vehicle: Klucel (hydroxypropylcellulose) (HPC)).

Take `CCN1CCC(=C(c2ccccc2)c2ccccc2)C1`: the T/C is, setting by setting: (dose: 18.75 mg/kg/injection, schedule: Q04DX004 (ip), vehicle: Klucel (hydroxypropylcellulose) (HPC)) 105 % of control; (dose: 37.5 mg/kg/injection, schedule: Q04DX004 (ip), vehicle: Klucel (hydroxypropylcellulose) (HPC)) 99 % of control.

Turning to `CC(C)(C)c1noc2c1C(=O)c1ccccc1-2`, the T/C reads like this: under setting [5], 102 % of control; under setting [6], 105 % of control; under setting [7], 100 % of control; under setting [8], 90 % of control.

Consider `NC(=O)c1c[se]c(C2OC(CO)C(O)C2O)n1` (configuration not stated), for which the T/C was 96 % of control (dose: 25.0 mg/kg/injection, schedule: Q04DX004 (ip), vehicle: water); 100 % of control (dose: 50.0 mg/kg/injection, schedule: Q04DX004 (ip), vehicle: water); 102 % of control (dose: 100.0 mg/kg/injection, schedule: Q04DX004 (ip), vehicle: water); 106 % of control (dose: 200.0 mg/kg/injection, schedule: Q04DX004 (ip), vehicle: water); 113 % of control (dose: 400.0 mg/kg/injection, schedule: Q04DX004 (ip), vehicle: water).

In the case of `CN(C)CCCOc1nc2c(c(=O)n(C)c(=O)n2C)n1C` (tested in a mixture with another compound), the T/C is, setting by setting: under setting [9], 169 % of control and 182 % of control; under setting [10], 163 % of control and 197 % of control; under setting [11], 208 % of control and 267 % of control.

In the case of `O=c1[nH]c(=O)n(C2CC(O)C(CO)O2)cc1C(F)(F)F` (configuration not stated), the T/C was 113 % of control and 114 % of control under setting [7]; 109 % of control and 113 % of control under setting [8]; 110 % of control and 112 % of control under setting [12]; 116 % of control under setting [13]; 116 % of control (dose: 1600.0 mg/kg/injection, schedule: Q04DX004 (ip), vehicle: saline with Tween-80).

For the molecule `O=C(O)c1cccc2c1ccc1ccccc12`, the T/C (dose: 4.0 mg/kg/injection, schedule: Q04DX004 (ip), vehicle: saline with Tween-80) was 109 % of control; the T/C (dose: 8.0 mg/kg/injection, schedule: Q04DX004 (ip), vehicle: saline with Tween-80) was 102 % of control; the T/C (dose: 8.0 mg/kg/injection, schedule: Q04DX005 (ip), vehicle: saline) was 98 % of control; the T/C (dose: 16.0 mg/kg/injection, schedule: Q04DX004 (ip), vehicle: saline with Tween-80) is 107 % of control; the T/C (dose: 16.0 mg/kg/injection, schedule: Q04DX005 (ip), vehicle: saline) was 93 % of control; the T/C (dose: 32.0 mg/kg/injection, schedule: Q04DX004 (ip), vehicle: saline with Tween-80) is 105 % of control. Besides, the T/C is, setting by setting: (dose: 32.0 mg/kg/injection, schedule: Q04DX005 (ip), vehicle: saline) 96 % of control; (dose: 64.0 mg/kg/injection, schedule: Q04DX004 (ip), vehicle: saline with Tween-80) 103 % of control; (dose: 64.0 mg/kg/injection, schedule: Q04DX005 (ip), vehicle: saline) 94 % of control; (dose: 128.0 mg/kg/injection, schedule: Q04DX005 (ip), vehicle: saline) 96 % of control.

On to `N[C@@H](Cc1c[nH]c2ccccc12)C(=O)Nc1nncs1`, for which the T/C is, setting by setting: (dose: 16.67 mg/kg/injection, schedule: Q03HX012 (ip), vehicle: saline) 102 % of control; (dose: 33.34 mg/kg/injection, schedule: Q03HX012 (ip), vehicle: saline) 101 % of control; (dose: 66.67 mg/kg/injection, schedule: Q03HX012 (ip), vehicle: saline) 109 % of control; under setting [14], 95 % of control; (dose: 133.34 mg/kg/injection, schedule: Q03HX012 (ip), vehicle: saline) 120 % of control; under setting [15], 111 % of control. The T/C (dose: 266.67 mg/kg/injection, schedule: Q03HX012 (ip), vehicle: saline) is 120 % of control; the T/C (dose: 400.0 mg/kg/injection, schedule: Q04DX004 (ip), vehicle: suspension in saline) was 101 % of control; the T/C (dose: 800.0 mg/kg/injection, schedule: Q04DX004 (ip), vehicle: suspension in saline) is 118 % of control.

For `CCn1c2ccccc2c2cc(N=Nc3cc4ccccc4cc3O)ccc21`, under “dose: 43.75 mg/kg/injection, schedule: Q04DX004 (ip), vehicle: Klucel (hydroxypropylcellulose) (HPC)”, the T/C was 89 % of control.

In the case of `CN(C)N=Nc1ccc(C(N)=O)cc1`, the T/C by setting is: under setting [5], 120 % of control and 121 % of control; under setting [7], 151 % of control; under setting [8], 163 % of control; under setting [12], 109 % of control.

With `CC1(C)C(=O)NC(=O)c2ccccc21`, under setting [16], the T/C was 109 % of control.

Regarding `O=C1CN(CO)C(=O)N1CO`, the T/C was 100 % of control under setting [16]; 104 % of control under setting [9]; 97 % of control under setting [10]; 114 % of control under setting [11]; 114 % of control (dose: 400.0 mg/kg/injection, schedule: Q04DX004 (ip), vehicle: Klucel (hydroxypropylcellulose) (HPC)).

As to `N=C(N)c1ccc(N=NNc2ccc(C(=N)N)cc2)cc1`, the T/C is 96 % of control under setting [5] and 97 % of control under setting [6].

As to `CCOC(=O)C1=C(Nc2ccc(OC)cc2)C(N)=NC1=N`, the T/C by setting is: (dose: 12.5 mg/kg/injection, schedule: Q04DX004 (ip), vehicle: suspension in saline) 102 % of control; (dose: 25.0 mg/kg/injection, schedule: Q04DX004 (ip), vehicle: suspension in saline) 100 % of control; under setting [6], 101 % of control; (dose: 50.0 mg/kg/injection, schedule: Q04DX004 (ip), vehicle: suspension in saline) 111 % of control; under setting [7], 99 % of control; under setting [14], 101 % of control. Further, the T/C is 102 % of control under setting [8], 105 % of control under setting [15], 106 % of control under setting [12] and 101 % of control under setting [13].

Consider `Cc1nc2c(cnn2C)cc1CCc1ccccc1`, for which the T/C by setting is: under setting [1], 99 % of control; under setting [2], 101 % of control; under setting [3], 99 % of control; under setting [4], 99 % of control; (dose: 300.0 mg/kg/injection, schedule: Q04DX004 (ip), vehicle: saline with Tween-80) 90 % of control.
